# Assay results taken from patent publication US12678507B2, “Protein tyrosine kinase 6 (PTK6) degradation / disruption compounds and methods of use” (Icahn School of Medicine at Mount Sinai, priority 2018, dated 2026).
# Target: T1, PTK6 (Homo sapiens, UniProt Q13882)
# T1 construct: endogenous in cells; host or cells: MDA-MB231 cells (ATCC)
# Experiment: Western blot of PTK6 protein levels in MDA-MB231 cells
# Format: cell-based
# Settings: MDA-231 (MDA-MB231) cells, 500 nM, 24 hours, Western blot (FIGS. 3-5)
# Procedure: FIGS. 2-5. Effects of exemplary compounds on reducing PTK6 protein levels in breast cancer cells. Triple negative MDA-MB231 cells were treated for 24 hours with 500 nM, 2 uM or 2.5 uM of test compound and lysed. Proteins were resolved by SDS/PAGE and immunoblotted with antibody to PTK6 (Santa Cruz, Cell Signaling) or GAPDH loading control (Cell Signaling).
# FIG. 13. PTK6 degraders suppress PTK6 expression. MDA-MB231 cells were treated with compounds (500 nM or 1 uM) for 24 hours in monolayer cultures. Cells were lysed and lysates were probed with anti-PTK6 antibody.
# MDA-MB231 cells were treated with DMSO or indicated compounds at 2.5 uM, 2 uM or 500 nM for 24 hours.
# MDA-MB231 cells were treated with compounds (500 nM or 1 uM) for 24 hours in monolayer cultures. Cells were lysed and lysates were probed with anti-PTK6 antibody.
# Cells were lysed in 1% NP-40 lysis buffer containing NaF, Na3VO4, Leupeptin, PMSF, aprotinin, and phosphatase inhibitor (PhosSTOP, Roche) as described previously (Irie et al., 2010). Cleared cell lysates were stored at −80° C. and were analyzed by western analysis as described previously (Irie et al., 2010).
# T1 sequence (Q13882 whole entry): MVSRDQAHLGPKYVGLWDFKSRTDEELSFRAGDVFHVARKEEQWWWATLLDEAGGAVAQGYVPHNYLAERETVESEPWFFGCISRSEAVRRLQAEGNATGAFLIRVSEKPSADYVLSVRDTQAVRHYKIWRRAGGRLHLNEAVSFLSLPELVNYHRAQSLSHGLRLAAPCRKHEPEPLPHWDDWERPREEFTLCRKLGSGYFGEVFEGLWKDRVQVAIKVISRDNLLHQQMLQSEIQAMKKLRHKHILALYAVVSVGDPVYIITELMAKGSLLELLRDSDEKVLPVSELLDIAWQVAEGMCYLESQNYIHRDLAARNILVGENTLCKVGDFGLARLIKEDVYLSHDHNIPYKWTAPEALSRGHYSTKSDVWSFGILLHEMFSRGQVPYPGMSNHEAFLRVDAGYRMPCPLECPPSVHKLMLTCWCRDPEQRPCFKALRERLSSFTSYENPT
row,reducing PTK6 protein levels / suppress PTK6 expression,SMILES
1,potently suppress PTK6 expression,"O=C1CCC(N2C(=O)c3cccc(NCCOCCOCCOCCC(=O)N4CCN(C(=O)c5ccc(Nc6nc(C7CC7)cn7c(-c8cn[nH]c8)cnc67)c(F)c5)CC4)c3C2=O)C(=O)N1 (stereo not drawn) [YX79-37, 4-((2-(2-(2-(3-(4-(4-((6-cyclopropyl-3-(1H-pyrazol-4-yl)imidazo[1,2-a]pyrazin-8-yl)amino)-3-fluorobenzoyl)piperazin-1-yl)-3-oxopropoxy)ethoxy)ethoxy)ethyl)amino)-2-(2,6-dioxopiperidin-3-yl)isoindoline-1,3-dione]"
2,potently suppress PTK6 expression,"Cc1ncsc1-c1ccc(CNC(=O)[C@@H]2C[C@@H](O)CN2C(=O)[C@@H](NC(=O)COCC(=O)N2CCN(C(=O)c3ccc(Nc4nc(C5CC5)cn5c(-c6cn[nH]c6)cnc45)c(F)c3)CC2)C(C)(C)C)cc1 [YX79-40, (2S,4R)-1-((S)-2-(2-(2-(4-(4-((6-cyclopropyl-3-(1H-pyrazol-4-yl)imidazo[1,2-a]pyrazin-8-yl)amino)-3-fluorobenzoyl)piperazin-1-yl)-2-oxoethoxy)acetamido)-3,3-dimethylbutanoyl)-4-hydroxy-N-(4-(4-methylthiazol-5-yl)benzyl)pyrrolidine-2-carboxamide]"
3,potently suppress PTK6 expression,"Cc1ncsc1-c1ccc(CNC(=O)[C@@H]2C[C@@H](O)CN2C(=O)[C@@H](NC(=O)COCCOCC(=O)N2CCN(C(=O)c3ccc(Nc4nc(C5CC5)cn5c(-c6cn[nH]c6)cnc45)c(F)c3)CC2)C(C)(C)C)cc1 [YX79-41, (2S,4R)-1-((S)-2-(2-(2-(2-(4-(4-((6-cyclopropyl-3-(1H-pyrazol-4-yl)imidazo[1,2-a]pyrazin-8-yl)amino)-3-fluorobenzoyl)piperazin-1-yl)-2-oxoethoxy)ethoxy)acetamido)-3,3-dimethylbutanoyl)-4-hydroxy-N-(4-(4-methylthiazol-5-yl)benzyl)pyrrolidine-2-carboxamide]"
4,potently suppress PTK6 expression,"Cc1ncsc1-c1ccc(CNC(=O)[C@@H]2C[C@@H](O)CN2C(=O)[C@@H](NC(=O)COCCOCCOCC(=O)N2CCN(C(=O)c3ccc(Nc4nc(C5CC5)cn5c(-c6cn[nH]c6)cnc45)c(F)c3)CC2)C(C)(C)C)cc1 [YX79-42, (2S,4R)-1-((S)-2-(tert-butyl)-14-(4-(4-((6-cyclopropyl-3-(1H-pyrazol-4-yl)imidazo[1,2-a]pyrazin-8-yl)amino)-3-fluorobenzoyl)piperazin-1-yl)-4,14-dioxo-6,9,12-trioxa-3-azatetradecanoyl)-4-hydroxy-N-(4-(4-methylthiazol-5-yl)benzyl)pyrrolidine-2-carboxamide]"
5,potently suppress PTK6 expression,"Cc1ncsc1-c1ccc(CNC(=O)[C@@H]2C[C@@H](O)CN2C(=O)[C@@H](NC(=O)CCCCCCC(=O)NCCN2CCN(C(=O)c3ccc(Nc4nc(C5CC5)cn5c(-c6cn[nH]c6)cnc45)c(F)c3)CC2)C(C)(C)C)cc1 [YX79-59, N^1-(2-(4-(4-((6-cyclopropyl-3-(1H-pyrazol-4-yl)imidazo[1,2-a]pyrazin-8-yl)amino)-3-fluorobenzoyl)piperazin-1-yl)ethyl)-N^8-((S)-1-((2S,4R)-4-hydroxy-2-((4-(4-methylthiazol-5-yl)benzyl)carbamoyl)pyrrolidin-1-yl)-3,3-dimethyl-1-oxobutan-2-yl)octanediamide]"
6,potently suppress PTK6 expression,"Cc1ncsc1-c1ccc(CNC(=O)[C@@H]2C[C@@H](O)CN2C(=O)[C@@H](NC(=O)COCCOCC(=O)NCCN2CCN(C(=O)c3ccc(Nc4nc(C5CC5)cn5c(-c6cn[nH]c6)cnc45)c(F)c3)CC2)C(C)(C)C)cc1 [YX79-65, (2S,4R)-1-((S)-2-(tert-butyl)-14-(4-(4-((6-cyclopropyl-3-(1H-pyrazol-4-yl)imidazo[1,2-a]pyrazin-8-yl)amino)-3-fluorobenzoyl)piperazin-1-yl)-4,11-dioxo-6,9-dioxa-3,12-diazatetradecanoyl)-4-hydroxy-N-(4-(4-methylthiazol-5-yl)benzyl)pyrrolidine-2-carboxamide]"
